Literature values in patent publication US11077096B2, “Modified release compositions comprising tacrolimus” (Veloxis Pharmaceuticals A/S, priority 2003, dated 2021).

Assays:
[1] = not given; remark: listed apart in the source

bioavailability (after oral administration): ≤ 20%
mean time-to-peak concentration (tmax) (oral administration, healthy subjects or kidney or liver transplanted patients): 1 to 2 h
Solubility in chloroform ([1]; chloroform): very soluble
Solubility in ethanol ([1]; ethanol): freely soluble
Solubility in methanol ([1]; methanol): very soluble
Solubility in water ([1]; water): practically insoluble
SMILES: C=CC[C@@H]1/C=C(\C)C[C@H](C)C[C@H](OC)[C@H]2O[C@@](O)(C(=O)C(=O)N3CCCC[C@H]3C(=O)OC(/C(C)=C/[C@@H]3CC[C@@H](O)[C@H](OC)C3)[C@H](C)[C@@H](O)CC1=O)[C@H](C)C[C@@H]2OC (stereo partly drawn) [Tacrolimus]
